Structures can show the parent of a compound that is named as a salt.
These compounds were tested against T1, methionine aminopeptidase-2 (MetAP2) (Homo sapiens, UniProt P50579) (assay: Inhibition of MetAP2 enzyme activity (96-well, Met-Ala-Ser substrate, L-amino acid oxidase/peroxidase/ortho-dianisidine, 450 nm)). Details: IC50, recombinant MetAP2 4 μg/mL, pH 7.4, Met-Ala-Ser substrate, 20 minutes.
T1 construct: made in house; host or cells: insect cells, baculovirus system (secreted, purified from culture supernatant)
T1 sequence (P50579 whole entry): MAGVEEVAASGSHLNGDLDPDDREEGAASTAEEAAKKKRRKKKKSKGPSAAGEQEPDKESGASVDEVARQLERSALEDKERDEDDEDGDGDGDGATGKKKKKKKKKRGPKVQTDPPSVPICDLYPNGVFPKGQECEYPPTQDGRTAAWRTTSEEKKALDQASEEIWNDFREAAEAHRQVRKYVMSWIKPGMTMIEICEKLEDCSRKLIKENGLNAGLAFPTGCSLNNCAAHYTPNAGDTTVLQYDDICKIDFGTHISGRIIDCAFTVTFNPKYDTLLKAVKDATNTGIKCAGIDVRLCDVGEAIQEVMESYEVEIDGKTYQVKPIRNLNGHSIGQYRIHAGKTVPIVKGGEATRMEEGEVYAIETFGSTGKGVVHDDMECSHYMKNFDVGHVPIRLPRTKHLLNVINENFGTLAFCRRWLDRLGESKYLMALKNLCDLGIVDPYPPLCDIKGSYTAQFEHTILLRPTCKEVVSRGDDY
Type: biochemical

Q: For N[C@H](CC1CCCCC1)C(O)C(=O)NCCc1cccc(C(F)(F)F)c1 (mixture of isomers) [Example 200, (2RS,3R)-3-amino-4-cyclohexyl-2-hydroxy-N-(3-(trifluoromethyl)phenethyl)butanamide Hydrochloride], which IC50 is on record?
A: 1500 nM

Q: For N[C@H](CC1CCCCC1)C(O)C(=O)NCCc1ccc(Br)cc1 (mixture of isomers) [Example 201, (2RS,3R)-3-amino-N-(4-bromophenethyl)-4-cyclohexyl-2-hydroxybutanamide Hydrochloride], which IC50 is on record?
A: 710 nM

Q: For N[C@H](CC1CCCCC1)C(O)C(=O)NC12CC3CC(CC(C3)C1)C2 (mixture of isomers) [Example 202, (2RS,3R)-N-(1-adamantyl)-3-amino-4-cyclohexyl-2-hydroxybutanamide Hydrochloride], which IC50 is on record?
A: 8300 nM

Q: With N[C@H](CC1CCCCC1)C(O)C(=O)NC1C2CC3CC(C2)CC1C3 (mixture of isomers) [Example 203, (2RS,3R)-N-(2-adamantyl)-3-amino-4-cyclohexyl-2-hydroxybutanamide Hydrochloride] as the compound, how does the IC50 read?
A: 4900 nM

Q: Which IC50 does the source give for N[C@H](CC1CCCCC1)C(O)C(=O)NC1CCCCCC1 (mixture of isomers) [Example 204, (2RS,3R)-3-amino-N-cycloheptyl-4-cyclohexyl-2-hydroxybutanamide Hydrochloride] here?
A: 3800 nM

Q: For N[C@H](CC1CCCCC1)C(O)C(=O)NCC1CCCCC1 (mixture of isomers) [Example 205, (2RS,3R)-3-amino-4-cyclohexyl-N-(cyclohexylmethyl)-2-hydroxybutanamide Hydrochloride], which IC50 is on record?
A: 2500 nM

Q: With N[C@H](CC1CCCCC1)C(O)C(=O)NC1CCCCC1 (mixture of isomers) [Example 206, (2RS,3R)-3-amino-N,4-dicyclohexyl-2-hydroxybutanamide Hydrochloride] as the compound, how does the IC50 read?
A: 10000 nM

Q: N[C@H](CC1CCCCC1)C(O)C(=O)NC1CCCC1 (mixture of isomers) [Example 207, (2RS,3R)-3-amino-4-cyclohexyl-N-cyclopentyl-2-hydroxybutanamide Hydrochloride] was tested. Which IC50 did it give?
A: 4100 nM

Q: Which IC50 does the source give for N[C@H](CC1CCCCC1)C(O)C(=O)NC1CCC1 (mixture of isomers) [Example 208, (2RS,3R)-3-amino-N-cyclobutyl-4-cyclohexyl-2-hydroxybutanamide Hydrochloride] here?
A: 2700 nM

Q: For CC(CCc1ccccc1)NC(=O)C(O)[C@H](N)CC1CCCCC1 (mixture of isomers) [Example 209, (2RS,3R)-3-amino-4-cyclohexyl-2-hydroxy-N-(1-methyl-3-phenylpropyl)butanamide Hydrochloride], which IC50 is on record?
A: 14000 nM

Q: For CC(Cc1cccc(C(F)(F)F)c1)NC(=O)C(O)[C@H](N)CC1CCCCC1 (mixture of isomers) [Example 210, (2RS,3R)-3-amino-4-cyclohexyl-2-hydroxy-N-(1-methyl-2-(3-(trifluoromethyl)phenyl)ethyl)butanamide Hydrochloride], which IC50 is on record?
A: 2300 nM

Q: For CCCCCC(C)NC(=O)C(O)[C@H](N)CC1CCCCC1 (mixture of isomers) [Example 212, (2RS,3R)-3-amino-4-cyclohexyl-2-hydroxy-N-(1-methylhexyl)butanamide Hydrochloride], which IC50 is on record?
A: 1700 nM

Q: Which IC50 does the source give for CC(C)OCCCNC(=O)C(O)[C@H](N)CC1CCCCC1 (mixture of isomers) [Example 213, (2RS,3R)-3-amino-4-cyclohexyl-2-hydroxy-N-(3-isopropoxypropyl)butanamide Hydrochloride] here?
A: 2600 nM

Q: CC(C)COCCCNC(=O)C(O)[C@H](N)CC1CCCCC1 (mixture of isomers) [Example 214, (2RS,3R)-3-amino-4-cyclohexyl-2-hydroxy-N-(3-isobutoxypropyl)butanamide Hydrochloride] was tested. Which IC50 did it give?
A: 2800 nM

Q: How did the IC50 turn out when N[C@H](CC1CCCCC1)C(O)C(=O)Nc1ccc(N2CCOCC2)cc1 (mixture of isomers) [Example 215, (2RS,3R)-3-amino-4-cyclohexyl-2-hydroxy-N-(4-(4-morpholinyl)phenyl)butanamide Hydrochloride] was run?
A: 1300 nM

Q: N[C@H](CC1CCCCC1)C(O)C(=O)NCCC(c1ccccc1)c1ccccc1 (mixture of isomers) [Example 216, (2RS,3R)-3-amino-4-cyclohexyl-N-(3,3-diphenylpropyl)-2-hydroxybutanamide Hydrochloride] was tested. Which IC50 did it give?
A: 1800 nM

Q: For CC(C)CCC(C)NC(=O)C(O)[C@H](N)CC1CCCCC1 (mixture of isomers) [Example 217, (2RS,3R)-3-amino-4-cyclohexyl-N-(1,4-dimethylpentyl)-2-hydroxybutanamide Hydrochloride], which IC50 is on record?
A: 1800 nM

Q: How did the IC50 turn out when C[C@@H](c1cccc2ccccc12)N(C)C(=O)C(O)[C@H](N)CC1CCCCC1 (mixture of isomers) [Example 219, (2RS,3R)-3-amino-4-cyclohexyl-2-hydroxy-N-methyl-N-((1S)-1-(1-naphthyl)ethyl)butanamide Hydrochloride] was run?
A: 1800 nM

Q: For COc1ccc(C(F)(F)F)cc1NC(=O)C(O)[C@H](N)CC1CCCCC1 (mixture of isomers) [Example 220, (2RS,3R)-3-amino-4-cyclohexyl-2-hydroxy-N-(2-methoxy-5-(trifluoromethyl)phenyl)butanamide Hydrochloride], which IC50 is on record?
A: 5500 nM

Q: Which IC50 does the source give for COc1ccc(-c2ccccc2)cc1NC(=O)C(O)[C@H](N)CC1CCCCC1 (mixture of isomers) [Example 221, (2RS,3R)-3-amino-4-cyclohexyl-2-hydroxy-N-(4-methoxy(1,1'-biphenyl)-3-yl)butanamide Hydrochloride] here?
A: 5400 nM

Q: Which IC50 does the source give for N[C@H](CC1CCCCC1)C(O)C(=O)Nc1ccc2c(c1)OCCO2 (mixture of isomers) [Example 222, (2RS,3R)-3-amino-4-cyclohexyl-N-(2,3-dihydro-1,4-benzodioxin-6-yl)-2-hydroxybutanamide Hydrochloride] here?
A: 200 nM

Q: For N[C@H](CC1CCCCC1)C(O)C(=O)Nc1cccc(OCc2ccccc2)c1 (mixture of isomers) [Example 223, (2RS,3R)-3-amino-N-(3-(benzyloxy)phenyl)-4-cyclohexyl-2-hydroxybutanamide Hydrochloride], which IC50 is on record?
A: 880 nM

Q: CCOc1cccc(NC(=O)C(O)[C@H](N)CC2CCCCC2)c1 (mixture of isomers) [Example 224, (2RS,3R)-3-amino-4-cyclohexyl-N-(3-ethoxyphenyl)-2-hydroxybutanamide Hydrochloride] was tested. Which IC50 did it give?
A: 430 nM

Q: How did the IC50 turn out when COc1cc(NC(=O)C(O)[C@H](N)CC2CCCCC2)cc(OC)c1OC (mixture of isomers) [Example 225, (2RS,3R)-3-amino-4-cyclohexyl-2-hydroxy-N-(3,4,5-trimethoxyphenyl)butanamide Hydrochloride] was run?
A: 350 nM

Q: For CC(Cc1ccccc1F)NC(=O)C(O)[C@H](N)CC1CCCCC1 (mixture of isomers) [Example 226, (2RS,3R)-3-amino-4-cyclohexyl-N-(2-(2-fluorophenyl)-1-methylethyl)-2-hydroxybutanamide Hydrochloride], which IC50 is on record?
A: 970 nM

Q: For CC(C)(Cc1ccc(F)cc1)NC(=O)C(O)[C@H](N)CC1CCCCC1 (mixture of isomers) [Example 227, (2RS,3R)-3-amino-4-cyclohexyl-N-(2-(4-fluorophenyl)-1,1-dimethylethyl)-2-hydroxybutanamide Hydrochloride], which IC50 is on record?
A: 880 nM

Q: Which IC50 does the source give for N[C@H](CC1CCCCC1)C(O)C(=O)NC1CCc2ccccc21 (mixture of isomers) [Example 228, (2RS,3R)-3-amino-4-cyclohexyl-N-(2,3-dihydro-1H-inden-1-yl)-2-hydroxybutanamide Hydrochloride] here?
A: 930 nM

Q: For N[C@H](CC1CCCCC1)C(O)C(=O)N[C@H]1C[C@@H]1c1ccccc1 (mixture of isomers) [Example 229, (2RS,3R)-3-amino-4-cyclohexyl-2-hydroxy-N-((1S,2R)-2-phenylcyclopropyl)butanamide Hydrochloride], which IC50 is on record?
A: 1200 nM

Q: How did the IC50 turn out when CC(C)(C)CC(C)(C)NC(=O)C(O)[C@H](N)CC1CCCCC1 (mixture of isomers) [Example 230, (2RS,3R)-3-amino-4-cyclohexyl-2-hydroxy-N-(1,1,3,3-tetramethylbutyl)butanamide Hydrochloride] was run?
A: 34000 nM

Q: With CC(C)CC(C)NC(=O)C(O)[C@H](N)CC1CCCCC1 (mixture of isomers) [Example 231, (2RS,3R)-3-amino-4-cyclohexyl-N-(1,3-dimethylbutyl)-2-hydroxybutanamide Hydrochloride] as the compound, how does the IC50 read?
A: 2500 nM

Q: How did the IC50 turn out when CC(NC(=O)C(O)[C@H](N)CC1CCCCC1)C12CC3CC(CC(C3)C1)C2 (mixture of isomers) [Example 233, (2RS,3R)-N-(1-(1-adamantyl)ethyl)-3-amino-4-cyclohexyl-2-hydroxybutanamide Hydrochloride] was run?
A: 2700 nM

Q: With N[C@H](CC1CCCCC1)C(O)C(=O)NCc1cccc(OC(F)(F)F)c1 (mixture of isomers) [Example 236, (2RS,3R)-3-amino-4-cyclohexyl-2-hydroxy-N-(3-(trifluoromethoxy)benzyl)butanamide Hydrochloride] as the compound, how does the IC50 read?
A: 1900 nM

Q: For N[C@H](CC1CCCCC1)C(O)C(=O)NCc1cc(C(F)(F)F)cc(C(F)(F)F)c1 (mixture of isomers) [Example 237, (2RS,3R)-3-amino-N-(3,5-bis(trifluoromethyl)benzyl)-4-cyclohexyl-2-hydroxybutanamide Hydrochloride], which IC50 is on record?
A: 5100 nM

Q: For N[C@H](CC1CCCCC1)C(O)C(=O)NCc1ccccc1C(F)(F)F (mixture of isomers) [Example 238, (2RS,3R)-3-amino-4-cyclohexyl-2-hydroxy-N-(2-(trifluoromethyl)benzyl)butanamide], which IC50 is on record?
A: 2700 nM

Q: CCNC(=O)[C@H](C)NC(=O)C(O)[C@@H](N)CCSC (stereo partly drawn) [Example 2, (2RS,3S,1'S)-N-((1-Ethylcarboxamido)ethyl)-3-amino-2-hydroxy-5-(methylthio)pentanamide hydrochloride] was tested. Which IC50 did it give?
A: 47000 nM

Same assay, conditions: recombinant MetAP2 4 μg/mL, pH 7.4, Met-Ala-Ser substrate, 20 minutes; read-out: IC50

Q: With CCSC(C)[C@H](NC(=O)OC(C)(C)C)C(O)C(=O)NC(=O)CCCc1ccccc1 (mixture of isomers) [Example 37, (2RS,3R)-N-((phenylbutyryl)-3-tert-butoxycarbonylamino-2-hydroxy-4-ethylthio)pentanamide] as the compound, how does the IC50 read?
A: 16000 nM

From patent US6242494A, “Substituted β-amino acid inhibitors of methionine aminopeptidase-2” (Abbott Laboratories, priority 1999, dated 2001)
